Data set [1] can be described thus: Pharmacokinetics in rats. The data set is classed as in vivo. The settings on record: Sprague-Dawley, rat, serum, ip, intraperitoneal 1.0 mg/kg, male SD rats. How it is done: Compound Z36-MP5 was evaluated in a pharmacokinetic study in male Sprague-Dawley (SD) rats following intraperitoneal injection of Z36-MP5 at 1.0 mg/kg as a solution in 5% DMSO, 30% PEG400, and 65% corn oil. Blood was collected at 0.25, 0.5, 1, 2, 4, 8, and 24 h following intraperitoneal injection. The blood samples were placed in wet ice, and serum was collected after centrifugation. Serum samples were frozen and stored at −80 °C. The serum samples were analyzed utilizing HPLC-coupled tandem mass spectrometry. Values are calculated from arithmetic mean plasma concentrations (n = 3 rats per condition). Rats experiments were done according to protocols approved by the ethics committee review board of University of Arkansas for Medical Science and in accordance with the guidelines set forth by the US National Institutes of Health.

Data set [2] concerns Cxcl9 and Cxcl10 mRNA in B16F10 cells. In words: RT-qPCR of Mi-2β target genes in treated cells. It is filed as cell-based, mouse. How it is done: Z36-MP5 was chosen for further validation and experimental therapeutics in vivo. […] To investigate its cellular inhibitory activity, B16F10 cells were treated with Z36-MP5 at concentrations ranging from 5 to 100 µM, and the activation of Mi-2β target genes measured by RT-qPCR. […] In addition, the pharmacokinetic properties of Z36-MP5 in Sprague-Dawley rats with administration of intraperitoneal injection dose of 1.0 mg/kg. […] To exclude any effects on the host cells, we implanted Mi-2β-null melanoma cells into C57BL6 mice and then treated the mice with Z36-MP5 accompanied by anti-PD-1 therapy.
The total RNA was extracted with QIAGEN RNeasy kit […] for cDNA synthesis with SuperScript II Reverse Transcriptase (Invitrogen). In total, 40 ng cDNA was used for quantitative real-time PCR amplification by TaqMan Gene Expression Master Mix (Thermo Fisher Scientific). The relative transcript levels were normalized with GAPDH expression. The data were calculated with the comparative CT method. Primers for RT-qPCR assays are shown in Supplementary Data 3.

In data set [3] the test system is tumor-infiltrating lymphocytes in B16F10 graft. Nature of the data set: Flow cytometry of tumor-infiltrating lymphocytes, B16F10 graft. The data set is classed as in vivo, C57BL/6 mice. How it is done:
Tumors were minced with scissors, and then digested with the digestion buffer (RPMI 1640 medium, 5% FBS, 1% penicillin-streptomycin, 25 mM HEPES, and 300 U collagenase (Sigma C0130)) on a shaker at 37 °C for 2 hours. Single cells were prepared through a 70 μm cell strainer. Erythrocytes were removed by incubation in red blood cell lysis buffer (R7757, Sigma) at room temperature for 5 min. The cells were prepared in PBS (with concentration of ~2 × 10^7) for studies.
The single-cell suspension were fixed with 2% paraformaldehyde solution (J19943K2, Thermo Scientific). CD45 + T cells were selected from single-cell suspension (about 2 × 10^7 cells digest from […] tumor tissue) by flow cytometry with the follow antibodies (anti-mouse CD45; BD pharmingen, 561875). And then the cells were stained anti-mouse CD3e PE (145-2C11, BD pharmingen, 553063), anti-mouse CD4 FITC (RM4-5, BD pharmingen, 553046), anti-mouse CD4 PE/Cy7 (GK1.5, BioLegend, 100421), anti-mouse CD8 FITC (53-6.7, BD pharmingen, 553031), anti-mouse CD8a APC/Cy7 (53-6.7, BioLegend 100713), anti-mouse IFN-γ PE (XMG1.2, eBioscience, 12731181), anti-mouse CD69 PE (H1.2F3, Biolegend, 104508), anti-mouse CD25 Alexa Fluor 488 (PC61.5, eBioscience, 53025182), anti-mouse CD107a-V450 (1D4B, BD, 560648), anti-human/mouse granzyme B FITC (GB11, BioLegend, 515403). […]
A general note: Flow cytometry measures light scatter and fluorescence of single cells or particles in a stream.

The test system of data set [4] is secreted Cxcl9 and Cxcl10, B16F10 cells. Nature of the data set: ELISA of secreted Cxcl9 and Cxcl10 in stimulated cells. The data set is classed as cell-based, mouse. Particulars: MS177 (10 μM), GSK126 (2μM) or Z36-MP5 (10 μM). How it is done:
B16F10 cells (1 × 10^6) with or without Mi-2β knockdown were seeded in 6-well plates in complete growth medium. Cell medium was changed to serum-free medium, before treatment with IFN-γ at indicated concentration for 24 h. The secreted chemokines were measured by mouse Cxcl9 ELISA kit (ab203364) and mouse Cxcl10 ELISA Kit (ab214563), according to the manufacturer’s protocols. Isolated graft tumors were prepared and minced with blades, then tumor tissues were cultured in PBS (250 mg/500 µl) for 4 h at 37 °C. The secreted amount of the chemokines in the culture were measured by mouse Cxcl9 ELISA kit (ab203364) and mouse Cxcl10 ELISA Kit (ab214563), according to the manufacturer’s protocols.
Supplementary Figure 10. Comparison of tumor growth inhibition effects between Z36-MP5 and EZH2 inhibitors. a Mice (n=8) bearing B16F10 cells were treated with control IgG or anti-PD-1 antibody in combination with Z36-MP5 or GSK126, as indicated. A mouse survival curve is shown, with log-rank test for mouse survival P value. b,c The epigenetic modifications of H3 (H3K27ac, H3K27me1 and H3K27me3) were measured in B16F10 cells stimulated with GSK126 or Z36-MP5 as indicated (n = 3, independent experiments). d The amount of secreted Cxcl9 and Cxcl10 was measured by ELISA in […]
represent mean ± SD. The unpaired, two tailed t-test. Source data are provided as a Source Data file. […]
In general terms: An ELISA detects its analyte on a solid surface through an enzyme-linked reagent.

A word on the Cmax: it is the maximum level reached in the sampled fluid or tissue.

As for `Cn1c(=O)[nH]c2ccc(-c3cccc(C(=O)NC4CCn5ccnc5C4)c3)cc21` (stereo not shown) [Z36-MP5], the Cmax in data set [1] was 3960 ng/mL. In addition, the half-life in data set [1] (read-out: half-life T1/2 (converted)) was 27 min. Further, the “expressions of Mi-2β target genes Cxcl9 and Cxcl10” value in data set [2] (5 μM to 100 μM) was “substantial increases”. Further, the “Mi-2β target gene expression (Cxcl9, Cxcl10 mRNA)” value in data set [2] (25 µM, 24 h) was “induced Mi-2β target gene expression including Cxcl9 and Cxcl10”. Moreover, in data set [3], the “CD8+ T-cell TILs in graft melanomas” value is recorded as “moderate increase”; the “GZMB expression and activation markers CD69, IFN-γ, CD25, CD107 in tumor-infiltrating CD8+ T cells” value is reported as “upregulation”. The “induction of ISGs compared with GSK126 or MS177” value in data set [4] was “more efficiently induced”.

The record behind these values is article PMC10924921, “Mi-2β promotes immune evasion in melanoma by activating EZH2 methylation” (Nature Communications, 2024).
